The values that follow come from patent US6482984B2 (priority 2000, dated 2002).

What all share (assay type): in vivo
Assay [1] deals with powdery mildew of wheat (Erysiphe graminis forma specialis tritici). Kind of assay: Activity against powdery mildew of wheat (protective spray, potted wheat seedlings). The conditions noted are these: 1 ppm active ingredient; wheat seedlings c.v. Frühgold; dusted with spores 24 hours after spraying; scored visually after 7 days; untreated plants infected to 90%. How it is done:
(§1) The active ingredients were formulated as a 10% strength emulsion in a mixture of 63% by weight of cyclohexanone and 27% by weight of emulsifier and diluted to the desired concentration with water.
Leaves of potted wheat seedlings c.v. “Frühgold” were sprayed to run off point with an aqueous preparation of active ingredient which had been prepared using a stock solution of 10% of active ingredient, 63% of cyclohexanone and 27% of emulsifier and, 24 hours after the spray coating had dried on, dusted with spores of powdery mildew of wheat (Erysiphe graminis forma specialis tritici). The test plants were subsequently placed in a greenhouse at 20-24° C. and 60-90% relative atmospheric humidity. After 7 days, the extent of the mildew development was scored visually in % infection of the total leaf area.

The next assay concerns Pyricularia oryzae. As to conditions: 63 ppm active ingredient; rice seedlings c.v. Tai-Nong 67; inoculated the day after spraying (protective); 6 days; determined visually; untreated plants infected to 85%.
Another assay concerns Puccinia recondita. Briefly: Curative activity against Puccinia recondita on wheat (leaf rust of wheat). As to conditions: 16 ppm active ingredient; wheat seedlings c.v. Kanzler; sprayed the day after infection (curative); 7 days in greenhouse; untreated plants infected to 95%. Here is the method:
as §1
Leaves of potted wheat seedlings c.v. “Kanzler” were dusted with leaf rust spores (Puccinia recondita). The pots were then placed for 24 hours in a chamber with high atmospheric humidity (90 to 95%) at 20 to 22° C. During this time, the spores germinated, and the germinal tubes penetrated the leaf tissue. The next day, the infected plants were sprayed to run off point with an aqueous preparation of active ingredient which had been prepared using a stock solution of 10% of active ingredient, 63% of cyclohexanone and 27% of emulsifier. After the spray coating had dried on, the test plants were cultivated for 7 days in a greenhouse at 20-22° C. and a relative atmospheric humidity of 65-70%. The extent of rust development on the leaves was then determined.

As to `CNC(=O)/C(=N/OC)c1ccccc1COc1ccc(OC(C)/C(C)=N/OC)cc1C` (stereo not shown) [I-1, 2-Methoxyimino-2-{2-[4-(2-methoxyimino-1-methyl-propoxy)-2-methylphenoxymethyl]phenyl}-N-methyl-acetamide], in assay [1], the “extent of the mildew development, % infection of the total leaf area” value (“extent … % infection of the total leaf area” for short) was “no infection”.

On to `CNC(=O)/C(=N/OC)c1ccccc1COc1ccccc1C` [compound A], for which, in assay [1], the “extent … % infection of the total leaf area” value was determined as 60%. The “extent of the development of the infection on the leaves” value in the assay on Pyricularia oryzae turned out to be 25%. Also, the “extent of rust development on the leaves (infection)” value with Puccinia recondita was 60%.

For the compound `CNC(=O)/C(=N/OC)c1ccccc1COc1ccc(/C(C)=N/OC)cc1C` [compound B], the “extent … % infection of the total leaf area” value in assay [1] was 25%. For the same compound, the “extent of the development of the infection on the leaves” value in the assay on Pyricularia oryzae was found to be 40%. In the assay with Puccinia recondita, the “extent of rust development on the leaves (infection)” value was found to be 25%.
